Source: patent US11311537B2, “Diagnosis and treatment of lymphoproliferative disorders with PARP inhibitors” (UNIVERSITY OF MIAMI, priority 2016, dated 2022)
“Also recorded” adds a separate entry of the source.

Assays:
[1] = test system: DOHH2; test: MTS cell proliferation assay, olaparib IC50; assay type: cell-based; settings: Homo sapiens, DOHH-2; DOHH2, DLBCL LMO2+
Method: (§1) Proliferation and cell cycle studies: Cell proliferation was studied using cell titer 96 Aqueous Non-radioactive cell proliferation (MTS) kit from Promega. This assay was performed following manufacturer's instructions. For cell cycle studies, cells were fixed with 70% cold ethanol and incubated overnight at 4° C. Next, cells were washed once with 1×PBS and incubated with 50 μg/ml Propidium Iodide (Invitrogen) and RNAse (0.1 mg/ml) for 30 min. Cells were analyzed using a flow cytometer (BD FACS Canto-II analyzer).

[2] = test system: OCI-19; test: MTS cell proliferation assay, olaparib IC50; assay type: cell-based; settings: Homo sapiens; OCI-19, DLBCL LMO2+
Method: as §1

[3] = test system: OCI-Ly8; test: MTS cell proliferation assay, olaparib IC50; assay type: cell-based; settings: Homo sapiens; OCI-Ly8, DLBCL LMO2+
Method: as §1

[4] = test system: DLBCL LMO2+ cell lines (OCI-Ly8, OCI-Ly19 and DOHH2); test: MTS cell proliferation assay; assay type: cell-based, human; settings: OCI-Ly8, OCI-Ly19, DOHH2 compared with IMR90, HCC1187, OCI-Ly1, U2932; p<0.001 by ANOVA
Method: as §1

[5] = test system: DLBCL LMO2- and control cell lines (OCI-Ly1, U2932, IMR90, HCC1187); test: MTS cell proliferation assay; assay type: cell-based, human
Method: as §1

[6] = test system: DLBCL LMO2+ cell lines; test: Colony-forming assay; assay type: cell-based, human; settings: olaparib pretreatment 48 h, colonies after 14 days
Method: Colony-forming assay: Clonogenic assays were performed as described elsewhere (McDonnell, Oncogene, 31(32), 3733-3740 (2012)). In total, 500 cells were pretreated with indicated olaparib concentration (0; 1; 10; 100; 1,000; and 10,000 nM) for 48 h and seeded in triplicate in MethoCult conditioned media (Stem Cell Technologies, Vancouver, Canada). After 14 days, macroscopic colonies were stained with iodonitrotetrazolium chloride (Sigma Aldrich) overnight and counted. Only colonies with 50 or more cells were counted.

[7] = test system: DLBCL LMO2+ cell lines; test: Cell death analysis by Annexin V / propidium iodide flow cytometry; assay type: cell-based, human; settings: 4 days, 1 μM olaparib
Source text: FIG. 4A, MTS assay to evaluate effect of olaparib on the proliferation of human lymphoblasts (HCC1187), human primary lung fibroblasts (IMR90) and human lymphomas cells (LMO2 negative (U2932, OCI-Ly1) and LMO2 positive (DOHH2, OCI-Ly8, OCI-Ly19)). *P<0.0001. Two-way ANOVA. FIG. 4B, quantification of colony formation assays in OCI-Ly1, DOHH2, VaL and Val (LMO2 KO)-LMO2-null Val cells exposed to different concentrations of olaparib. Only colonies with 50 or more cells where counted. *P<0.001, Two-way ANOVA. FIG. 4C, quantification of the flow cytometer results for Propidium Iodide (PI) and Annexin V staining after 4 days in presence or absence of 1 μM olaparib for cell death analysis in the indicated lymphoma cell lines. FIG. 4D, representative pictures of colony formation assay quantified in FIG. 4B using DOHH2 cells. […] CI, Combination Index (CI<1 indicates a synergistic effect). FIG. 4F, quantification of γH2AX DNA damage foci in OCI-Ly8 cells exposed to or not exposed to olaparib during 24 hs.

[8] = test system: OCI-Ly8 cells; test: gammaH2AX DNA damage foci (immunofluorescence); assay type: cell-based, human; settings: OCI-Ly8, 24 hs exposure
Method: Immunofluorescence studies: For studying DNA break repair, DNA double-strand breaks were induced either by exposing the cells to ionization radiation (IR). DLBCL cell lines were exposed to gamma ray source at 10 Gy (cobalt 60 irradiator) and U2OS cells were exposed to 4 Gy. Alternatively double-stranded breaks were induced by adding Doxorubicin (12.5 ng/ml) to the culture during 16-20 hs. Cells were attached on a glass slide pre-coated with poly-lysine for 30 min. Cells were fixed with 4% Para-formaldehyde in 1×PBS for 15 min at room temperature. After fixing, cells were permeabilized using blocking solution (1 mg/ml BSA, 5% Goat/Horse normal serum, 0.5% TritonX-100) for 30 min. Cells were incubated with primary antibodies diluted in blocking solution for 1 h. Cells were washed three times with 1×PBS 5 min each. After washing, cells were incubated with secondary antibodies diluted in blocking solution, Alexa Fluor 488 or Alexa Fluor 594 for 30 min. Cells were then washed with 1×PBS twice for 5 min each wash. Nuclear DNA was visualized via DAPI (1 μg/ml) (Sigma Aldrich) staining for 15 min. Finally, cells were washed with 1×PBS for 15 min to remove excess stain and mounted with Prolong Gold antifade reagent (Invitrogen). Images were acquired using a Leica DMI6000 B Fluorescence microscope.

[9] = test system: DLBCL LMO2+ cell lines (OCI-Ly8, OCI-Ly19, DOHH2); test: Colony formation assay, olaparib in combination with genotoxic agents (Combination Index); assay type: cell-based, human
Source text: Only colonies with 50 or more cells where counted. *P<0.001, Two-way ANOVA. […] CI, Combination Index (CI<1 indicates a synergistic effect).

[10] = test system: OCI-Ly1 xenografts (LMO2 negative); test: DLBCL subcutaneous xenograft model; assay type: in vivo, NOD/SCID mice; settings: olaparib 50 mg/kg
Source text: (§2) Subcutaneous xenograft tumors were generated by human DLBCL cells (OCI-Ly19 or OCI-Ly1) injected into NOD/SCID (5 million cells/mouse). Treatment started when tumor reached 100 mm^3 (˜10 days post-injection). FIG. 5A, Kaplan-Meier plots: OCI-Ly19 (n=per group: n=8 CTL, n=9 olaparib, n=5 RCHOP, n=5 RCHOP+olaparib) and OCI-Ly1 (n=5 per group). Mice were euthanized when the tumor volume reached 1500 mm^3 in accordance with the institutional guidelines. Statistical analysis was done by the log rank (Mantel-Cox) test. FIG. 5B, Ex vivo analyses of the tumors. The xenografts were generated as described above. Shown are representative FACS analyses of the OCI-Ly19 tumor cells exposed or not to olaparib during 3 days and stained with Annexin V and propidium iodide (PI). FIG. 5C, Tunnel assays in OCI-Ly19 tumor samples exposed or not to olaparib.
(§3) All mice studies were conducted after approval of IACUC protocol. For DLBCL xenograft model, five-week-old female NOD/SCID mice (Harlan's) were subcutaneously injected with DLBCL cell line OCI-LY19 (5×10^6 cells/mouse) into the right flank. Once tumors reached 100 mm^3, mice were subdivided into two experimental groups (n=5-7/group). One group received buffer solution (1×PBS) and the other group received Olaparib (50 mg/kg; LC Labs, MA) for 21 consecutive days via IP injection. In separate experiments, one group received buffer solution (1×PBS), second group received Olaparib (50 mg/kg; LC Labs, MA), third group RCHOP (Rituximab 20 mg/kg, i.v. for a single dose on D1; cyclophosphamide, 40 mg/kg, D1; doxorubicin, 3.3 mg/kg, i.v. D1; vincristine, 0.5 mg/kg, i.v. D1; and prednisone, 0.2 mg/kg, every day by oral gavage on D1-5 and fourth group combination of Olaparib with RCHOP. Tumor bearing mice were observed every two days for tumor volume and weight loss was measured using standard calipers. Once the tumor volume exceeded 1500 mm^3 or the mouse […] dropped more than 10% total body weight, the mice were sacrificed.

[11] = test system: OCI-Ly19 xenografts (LMO2 positive); test: DLBCL subcutaneous xenograft model; assay type: in vivo, NOD/SCID mice; settings: for lifespan (survival): olaparib 50 mg/kg IP, 21 days, vs control group
Source text: as §2, §3

[12] = test system: primary human DLBCL tumors expressing or not LMO2; test: MTS assay in primary human tumor samples; assay type: cell-based; settings: LMO2- and reactive follicular hyperplasia
Source text: FIGS. 6A-6C: Olaparib and doxorubicin show synergy to kill primary DLBCL cells expressing LMO2. FIG. 6A, MTS assay to evaluate the effect of exposure to different concentrations of olaparib alone or in combination with doxorubicin in primary human DLBCL tumors expressing or not LMO2 and a Reactive follicular hyperplasia (LMO2−). CI, Combination Index (CI<1 indicates a synergistic effect). FIG. 6B, Western blots showing LMO2 level in human DLBCL cell lines (OCI-Ly1 (LMO2 negative), OCI-Ly19 (LMO2 positive), human primary lymphoblasts (HCC1187)), and primary human tumors (LMO2+, DLBCL expressing LMO2, LMO2−, DLBCL not expressing LMO2) and RFH-Reactive follicular hyperplasia not expressing LMO2. GAPDH was used as loading control. FIG. 6C, immunohistochemistry (IHC) for LMO2 in primary human DLBCL samples used for FIGS. 6A and 6B. H&E, hematoxylin and eosin staining.
Primary tumors were obtained from DLBCL or no DLBCL patients following appropriate consent of the IRB approved protocol and single cell suspension generated using standard techniques.
as §1

[13] = test system: MOLT16 (LMO2-positive) versus Jurkat (LMO2-negative); test: MTS cell proliferation assay in T-ALL cell lines; assay type: cell-based, human; settings: LMO2 expressing versus LMO2 negative T-ALL cell line, 4 days, p<0.001 by ANOVA
Source text: (§4) FIG. 7A, quantification of cell proliferation via MTS assay in MOLT16 (LMO2+) and Jurkat (LMO2−) T cell lymphoblastic leukemia cell lines exposed to different concentrations of olaparib during 4 days. *P<0.001, Two-way ANOVA. FIG. 7B, quantification of the flow cytometer results for Annexin V staining after 4 days in presence or absence of indicated concentrations of olaparib for cell death analysis in the indicated T cell lymphoblastic leukemia cell lines.
as §1

[14] = test system: MOLT16 (LMO2-positive) versus Jurkat (LMO2-negative); test: Annexin V cell death analysis in T-ALL cell lines; assay type: cell-based, human; settings: LMO2 expressing versus LMO2 negative T-ALL cell line, 4 days
Source text: as §4

[15] = breast cancer treated patients; cited from earlier work

## O=C(c1cc(Cc2n[nH]c(=O)c3ccccc23)ccc1F)N1CCN(C(=O)C2CC2)CC1 [olaparib]
[1]
  IC50: 120 nM
[2]
  IC50: 130 nM
[3]
  IC50: 800 nM
[4]
  cell proliferation: decreases proliferation; also recorded: statistically significant (p<0.001 by ANOVA) decrease in cell proliferation
[5]
  effect on DLBCL LMO2- and control cell lines: no or minimal effect
[6]
  colony formation: pronounced olaparib-mediated decrease in colony formation
[7]
  cell death via apoptosis: induces cell apoptosis; also recorded: increased cell death via apoptosis
[8]
  DNA damage (γH2AX foci): increased DNA damage
[9]; olaparib + doxorubicin, three DLBCL LMO2+ cell lines, preliminary studies
  synergy with doxorubicin: synergistic
[10]
  lifespan (survival): did not produce any effect
[11]; OCI-Ly19 tumors, ex vivo analysis
  cell death in tumors (Annexin V, PI, Tunnel assay): increase in cell death
[11]; OCI-Ly19 xenografts
  lifespan (survival): increased the lifespan
[11]; OCI-Ly19 xenografts, listed as Olaparib
  lifespan (survival): prolongs survival
[11]; OCI-Ly19 xenografts, olaparib + RCHOP vs RCHOP
  lifespan in combination with RCHOP: increased the life-span
[11]; human DLBCL cells expressing LMO2, murine xenograft
  tumor growth in vivo: slows growth
[12]
  proliferation capacity of primary tumor samples, olaparib alone: only affected the proliferation capacity of the DLBCL sample expressing LMO2 protein
  proliferation capacity of primary tumor samples, olaparib in combination with doxorubicin: only affected the proliferation capacity of the DLBCL sample expressing LMO2 protein
[12]; listed as Olaparib
  proliferation capacity of primary tumor samples, olaparib in combination with doxorubicin: show synergy
[13]
  cell proliferation: decreases proliferation
[13]; listed as Olaparib
  cell proliferation: statistically significant (p<0.001 by ANOVA) decrease in cell proliferation
[14]
  cell death: induces cell apoptosis
[14]; listed as Olaparib
  cell death: increase in cell death
[15]
  concentration observed in the blood: 2000 nM

## N.N.O=C([O-])C1(C(=O)[O-])CCC1.[Pt+2] [carboplatin]
[9]; olaparib + carboplatin, OCI-Ly19 and DOHH2
  synergy with olaparib (carboplatin): showed synergy
